Biological target: PAR1 (Homo sapiens (Human), UniProt P25116)
Test: Par-1 FLIPR assay (calcium, HEK 293 cells, PAR1 activating peptide)
Assay type: cell-based
Conditions: PAR1 selective receptor-activating peptide at 80% activation
Description: HEK 293 Cells were grown in media containing DMEM, 10% FBS pen/strep/L-Glutamine and non-essential amino acids. The cells were plated in 384-well PDL coated plates at 12000 cells/well and incubated overnight at 37° C./5% CO2. Media was then removed from the cells, which were then incubated with buffer (Hank's containing HEPES and Chaps) containing FLIPR calcium-5 dye, made with buffer containing probenecid, for 60 minutes at 37° C. Varying concentrations of compound in a final concentration of 5% DMSO were then added to the cells and incubated at 25° C. for 30 minutes. […] The FLIPR reads at an excitation wavelength of 480 nm and an emission wavelength of 535 nm, and performs 60 scans over a 1-2 min reading time. The data were analyzed by taking the peak signal over a portion of the range of the 60 scans and dividing this signal by the minimum signal for that same range.

Sequence of PAR1 (P25116 22-425): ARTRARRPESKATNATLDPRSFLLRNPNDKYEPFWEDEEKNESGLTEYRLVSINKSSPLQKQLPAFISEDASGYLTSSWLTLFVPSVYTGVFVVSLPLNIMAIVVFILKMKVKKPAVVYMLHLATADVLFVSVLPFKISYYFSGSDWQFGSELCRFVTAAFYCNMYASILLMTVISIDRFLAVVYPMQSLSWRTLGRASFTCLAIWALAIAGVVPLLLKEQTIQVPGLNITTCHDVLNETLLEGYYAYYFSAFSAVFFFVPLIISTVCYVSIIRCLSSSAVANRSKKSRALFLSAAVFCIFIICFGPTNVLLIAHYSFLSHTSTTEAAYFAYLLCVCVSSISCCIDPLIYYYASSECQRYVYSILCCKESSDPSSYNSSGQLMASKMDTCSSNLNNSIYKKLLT

Row | SMILES | IC50
1 | C[C@H]1OC(=O)[C@]2(Cc3nnn(C)n3)CC(F)(F)[C@@H](C)[C@H](/C=C/c3ccc(-c4ccccc4Cl)cn3)C12 (stereo partly drawn) [Example 29a] | 2.1 nM
2 | C[C@H]1OC(=O)[C@]2(NCc3cncnc3)CC(F)(F)[C@@H](C)[C@H](/C=C/c3ccc(-c4ccccc4C#N)cn3)[C@H]12 [Example 47] | 5.7 nM
3 | C[C@H]1OC(=O)[C@]2(NC3COC3)CC(F)(F)[C@@H](C)[C@H](/C=C/c3ccc(-c4ccccc4C#N)cn3)[C@H]12 [Example 49] | 10.4 nM
4 | C[C@H]1OC(=O)[C@]2(O)CC(F)(F)[C@@H](C)[C@H](/C=C/c3ccc(-c4ccccc4OC(F)(F)F)cn3)[C@H]12 [Example 9] | 4.5 nM
5 | C[C@H]1OC(=O)[C@]2(NC3CCC3)CC(F)(F)[C@@H](C)[C@H](/C=C/c3ccc(-c4ccccc4C#N)cn3)[C@H]12 [Example 36] | 4.1 nM
6 | Cc1cn([C@@]23CC(F)(F)[C@@H](C)[C@H](/C=C/c4ccc(-c5ccccc5C#N)cn4)[C@@H]2[C@@H](C)OC3=O)nn1 [Example 32] | 1.4 nM
7 | C[C@H]1OC(=O)[C@]2(NC(=O)c3ccc(C#N)cc3)CC(F)(F)[C@@H](C)[C@H](/C=C/c3ccc(-c4ccccc4C#N)cn3)[C@H]12 [Example 64] | 2.9 nM
8 | Cc1nnc(C[C@@]23CC(F)(F)[C@@H](C)[C@H](/C=C/c4ccc(-c5ccccc5Cl)cn4)[C@@H]2[C@@H](C)OC3=O)o1 [Example 28] | 0.9 nM
9 | C[C@H]1OC(=O)[C@]2(NC(=O)c3ccc(Cl)nc3)CC(F)(F)[C@@H](C)[C@H](/C=C/c3ccc(-c4ccccc4C#N)cn3)[C@H]12 [Example 59] | 3 nM
10 | CC(=O)N[C@@]12CC(F)(F)[C@@H](C)[C@H](/C=C/c3ccc(-c4ccccc4C#N)cn3)[C@@H]1[C@@H](C)OC2=O [Example 53] | 26 nM
11 | CC1[C@H](/C=C/c2ccc(-c3ccccc3C#N)cn2)C2[C@@H](C)OC(=O)[C@]2(NCc2ncco2)CC1(F)F (stereo partly drawn) [Example 41] | 6.5 nM
12 | C[C@H]1OC(=O)[C@]2(C3(O)CNC3)CC(F)(F)[C@@H](C)[C@H](/C=C/c3ccc(-c4ccccc4C#N)cn3)[C@H]12 [Example 24] | 40.7 nM
13 | C[C@H]1OC(=O)C2CC(F)(F)[C@@H](C)[C@H](/C=C/c3ccc(-c4ccccc4Cl)cn3)C21 (stereo partly drawn) [Example 4] | 2.7 nM
14 | C[C@H]1OC(=O)[C@]2(Cc3ncon3)CC(F)(F)[C@@H](C)[C@H](/C=C/c3ccc(-c4ccccc4Cl)cn3)[C@H]12 [Example 26] | 1.2 nM
15 | CC1[C@H](/C=C/c2ccc(-c3ccccc3C#N)cn2)C2[C@@H](C)OC(=O)[C@]2(NCc2cccnc2)CC1(F)F (stereo partly drawn) [Example 38] | 4.7 nM
16 | C[C@H]1OC(=O)[C@]2(NCC(C)(C)C)CC(F)(F)[C@@H](C)[C@H](/C=C/c3ccc(-c4ccccc4C#N)cn3)[C@H]12 [Example 51] | 10.2 nM
17 | CC1[C@H](/C=C/c2ccc(-c3ccccc3C#N)cn2)C2[C@@H](C)OC(=O)[C@]2(NCc2cocn2)CC1(F)F (stereo partly drawn) [Example 42] | 2.4 nM
18 | C[C@H]1OC(=O)[C@]2(NCc3ccccn3)CC(F)(F)[C@@H](C)[C@H](/C=C/c3ccc(-c4ccccc4C#N)cn3)[C@H]12 [Example 46] | 3.1 nM
19 | C[C@H]1OC(=O)[C@]2(C(=O)NC3CCC3)CC(F)(F)[C@@H](C)[C@H](/C=C/c3ccc(-c4ccccc4C#N)cn3)[C@H]12 [Example 18] | 3.3 nM

Row | SMILES | IC50
20 | Cc1cccc(-c2ccc(/C=C/[C@@H]3[C@@H]4[C@@H](C)OC(=O)[C@]4(N)CC(F)(F)[C@H]3C)nc2)c1C#N [Example 73] | 3.3 nM
21 | Cc1cc(C(=O)N[C@@]23CC(F)(F)[C@@H](C)[C@H](/C=C/c4ccc(-c5ccccc5C#N)cn4)[C@@H]2[C@@H](C)OC3=O)no1 [Example 60] | 3.4 nM
22 | C[C@H]1OC(=O)[C@]2(NC(=O)C3CC3)CC(F)(F)[C@@H](C)[C@H](/C=C/c3ccc(-c4ccccc4C#N)cn3)[C@H]12 [Example 66] | 3.5 nM
23 | C[C@H]1OC(=O)[C@]2(NCC3CC3)CC(F)(F)[C@@H](C)[C@H](/C=C/c3ccc(-c4ccccc4C#N)cn3)[C@H]12 [Example 50] | 2.7 nM
24 | C[C@H]1OC(=O)[C@]2(S(C)(=O)=O)CC(F)(F)[C@@H](C)[C@H](/C=C/c3ccc(-c4ccccc4C#N)cn3)[C@H]12 [Example 70] | 15.6 nM
25 | C[C@H]1OC(=O)C2CC(F)(F)[C@@H](C)[C@H](/C=C/c3ccc(-c4ccccc4OC(F)(F)F)cn3)C21 (stereo partly drawn) [Example 5] | 4.7 nM
26 | C[C@H]1OC(=O)[C@@H]2CC(F)(F)[C@@H](C)[C@H](/C=C/c3ccc(-c4ccccc4C#N)cn3)[C@H]12 [Example 1] | 1.6 nM
27 | C[C@H]1OC(=O)[C@]2(NCC(O)CCl)CC(F)(F)[C@@H](C)[C@H](/C=C/c3ccc(-c4ccccc4C#N)cn3)[C@H]12 (stereo partly drawn) [Example 52] | 4.3 nM
28 | C[C@H]1OC(=O)[C@]2(NCc3nccn3C)CC(F)(F)[C@@H](C)[C@H](/C=C/c3ccc(-c4ccccc4C#N)cn3)[C@H]12 [Example 48] | 3 nM
29 | COC(=O)[C@@]12CC(F)(F)[C@@H](C)[C@H](/C=C/c3ccc(-c4cccc(F)c4)cn3)[C@@H]1[C@@H](C)OC2=O [Example 11] | 3.4 nM
30 | C[C@H]1OC(=O)[C@]2(N)CC(F)(F)[C@@H](C)[C@H](/C=C/c3ccc(-c4ccccc4-c4nnn[nH]4)cn3)[C@H]12 [Example 74] | 872 nM
31 | CC1[C@H](/C=C/c2ccc(-c3ccccc3C#N)cn2)C2[C@@H](C)OC(=O)[C@]2(NCc2ccncc2)CC1(F)F (stereo partly drawn) [Example 40] | 3.9 nM
32 | Cc1nnnn1[C@@]12CC(F)(F)[C@@H](C)[C@H](/C=C/c3ccc(-c4ccccc4C#N)cn3)[C@@H]1[C@@H](C)OC2=O [Example 34] | 6.4 nM
33 | C[C@@H]1[C@H](/C=C/c2ccc(-c3ccccc3C#N)cn2)[C@H]2[C@@H](C)OC(=O)[C@]2(NC(=O)c2ccc(F)cc2)CC1(F)F [Example 62] | 1.7 nM
34 | C[C@H]1OC(=O)[C@]2(C(=O)O)CC(F)(F)[C@@H](C)[C@H](/C=C/c3ccc(-c4cccc(F)c4)cn3)[C@H]12 [Example 12] | 10.9 nM
35 | C[C@H]1OC(=O)[C@]2(NC(=O)c3ccccc3)CC(F)(F)[C@@H](C)[C@H](/C=C/c3ccc(-c4ccccc4C#N)cn3)[C@H]12 [Example 63] | 2.3 nM
36 | C[C@H]1OC(=O)[C@]2(CC#N)CC(F)(F)[C@@H](C)[C@H](/C=C/c3ccc(-c4ccccc4Cl)cn3)[C@H]12 [Example 25] | 3.3 nM
37 | C[C@H]1OC(=O)[C@]2(NCc3cnccn3)CC(F)(F)[C@@H](C)[C@H](/C=C/c3ccc(-c4ccccc4C#N)cn3)[C@H]12 [Example 45] | 4.4 nM

Now from value to molecule:

Row | IC50 | SMILES
38 | 5.3 nM | C[C@H]1OC(=O)[C@]2(N(C)C)CC(F)(F)[C@@H](C)[C@H](/C=C/c3ccc(-c4ccccc4C#N)cn3)[C@H]12 [Example 37]
39 | 2.8 nM | C[C@H]1OC(=O)[C@]2(NC(=O)c3nccs3)CC(F)(F)[C@@H](C)[C@H](/C=C/c3ccc(-c4ccccc4C#N)cn3)[C@H]12 [Example 57]
40 | 1.2 nM | C[C@H]1OC(=O)[C@]2(C(O)c3nccs3)CC(F)(F)[C@@H](C)[C@H](/C=C/c3ccc(-c4ccccc4C#N)cn3)[C@H]12 (stereo partly drawn) [Example 21b]
41 | 2.2 nM | C[C@H]1OC(=O)[C@]2(C(O)c3cocn3)CC(F)(F)[C@@H](C)[C@H](/C=C/c3ccc(-c4ccccc4C#N)cn3)[C@H]12 (stereo partly drawn) [Example 22b]
42 | 2.5 nM | CC1[C@H](/C=C/c2ccc(-c3ccccc3C#N)cn2)C2[C@@H](C)OC(=O)[C@]2(C(O)c2nccs2)CC1(F)F (stereo partly drawn) [Example 21a]
43 | 1.2 nM | C[C@H]1OC(=O)[C@]2(C(O)c3cscn3)CC(F)(F)[C@@H](C)[C@H](/C=C/c3ccc(-c4ccccc4C#N)cn3)[C@H]12 (stereo partly drawn) [Example 20b]
44 | 2.7 nM | C[C@H]1OC(=O)[C@]2(CO)CC(F)(F)[C@@H](C)[C@H](/C=C/c3ccc(-c4ccccc4C#N)cn3)[C@H]12 [Example 15]
45 | 7.2 nM | C[C@H]1OC(=O)[C@]2(N)CC(F)(F)[C@@H](C)[C@H](/C=C/c3ccc(-c4ccccc4C#N)cn3)[C@H]12 [Example 7]
46 | 3 nM | C[C@H]1OC(=O)[C@]2(C(O)c3ccccn3)CC(F)(F)[C@@H](C)[C@H](/C=C/c3ccc(-c4ccccc4C#N)cn3)[C@H]12 (stereo partly drawn) [Example 19]
47 | 2.3 nM | C[C@H]1OC(=O)[C@]2(CN)CC(F)(F)[C@@H](C)[C@H](/C=C/c3ccc(-c4ccccc4C#N)cn3)[C@H]12 [Example 76]
48 | 3.1 nM | C[C@H]1OC(=O)[C@]2(C(O)c3ncco3)CC(F)(F)[C@@H](C)[C@H](/C=C/c3ccc(-c4ccccc4C#N)cn3)[C@H]12 (single isomer, unassigned) [Example 23a]
49 | 2.2 nM | CC1[C@H](/C=C/c2ccc(-c3ccccc3C#N)cn2)C2[C@@H](C)OC(=O)[C@]2(NCc2nccs2)CC1(F)F (stereo partly drawn) [Example 39]
50 | 1.2 nM | C[C@H]1OC(=O)[C@]2(C(O)c3ncco3)CC(F)(F)[C@@H](C)[C@H](/C=C/c3ccc(-c4ccccc4C#N)cn3)[C@H]12 (single isomer, unassigned) [Example 23b]
51 | 4.8 nM | C[C@H]1OC(=O)[C@]2(Br)CC(F)(F)[C@@H](C)[C@H](/C=C/c3ccc(-c4ccccc4C#N)cn3)[C@H]12 [Example 71]
52 | 2.5 nM | CO[C@@]12CC(F)(F)[C@@H](C)[C@H](/C=C/c3ccc(-c4ccccc4C#N)cn3)[C@@H]1[C@@H](C)OC2=O [Example 72]
53 | 1.3 nM | C[C@H]1OC(=O)[C@]2(NCc3cncs3)CC(F)(F)[C@@H](C)[C@H](/C=C/c3ccc(-c4ccccc4C#N)cn3)[C@H]12 [Example 43]
54 | 1.6 nM | C[C@H]1OC(=O)[C@]2(NCc3cscn3)CC(F)(F)[C@@H](C)[C@H](/C=C/c3ccc(-c4ccccc4C#N)cn3)[C@H]12 [Example 44]

Source: US9340530B2, “Preparation and use of bicyclic himbacine derivatives as PAR-1 receptor antagonists” (Merck, Sharp & Dohme Corp., priority 2012, dated 2016)
